# From patent US12649750B2, “Macrocyclic compounds, compositions, and methods of using thereof” (Sionna Therapeutics Inc., priority 2022, dated 2026)
# Legend:
# NBD1 = target: T1, NBD1 (Homo sapiens, UniProt P13569); assay: Aggregation analysis using differential static light scattering (DSLS), thermal stability of NBD1 (ΔTagg); format: binding; details: ΔTagg versus DMSO control, NBD1 0.2 mg/ml
# T1 construct: Purified recombinant NBD1 was produced using previously described methods; made in house
# T1 sequence (P13569 423-646 limits assumed): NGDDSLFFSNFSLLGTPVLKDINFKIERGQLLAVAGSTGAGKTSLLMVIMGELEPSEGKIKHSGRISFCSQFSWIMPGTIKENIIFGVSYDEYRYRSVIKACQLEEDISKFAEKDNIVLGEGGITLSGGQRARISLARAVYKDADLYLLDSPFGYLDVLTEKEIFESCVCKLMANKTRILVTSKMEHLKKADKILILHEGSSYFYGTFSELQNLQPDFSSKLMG
# Summary of the method: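 NBD1 0.2 mg/ml, S200 buffer (50 mM Tris-HCl, 150 mM NaCl, 5 mM MgCl2, 2 mM ATP, 2 mM DTT, pH7.6) + 1% glycerol; cpd in DMSO; oil overlay. Ramp 25→70° C. at 1° C./min, DSLS images every 0.5° C. ΔTagg = Tagg (inflection) − mean DMSO Tagg.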
# CFTR = target: T2, CFTR (Homo sapiens, UniProt P13569, DEL508-508); assay: TECC24 AUC fold over DMSO @10 μM, CFTR-mediated transepithelial chloride transport in CF-HBE cells; format: cell-based; details: test agent AUC divided by DMSO vehicle AUC, primary CF-HBE cells, ΔF508 homozygous donor, 48 hours incubation
# T2 construct: Primary human bronchial epithelial cells from a ΔF508 homozygous CF donor; host or cells: primary human bronchial epithelial cells (CF-HBE), ΔF508 homozygous donor
# T2 sequence (P13569 with tags, fused parts or gaps DEL508-508): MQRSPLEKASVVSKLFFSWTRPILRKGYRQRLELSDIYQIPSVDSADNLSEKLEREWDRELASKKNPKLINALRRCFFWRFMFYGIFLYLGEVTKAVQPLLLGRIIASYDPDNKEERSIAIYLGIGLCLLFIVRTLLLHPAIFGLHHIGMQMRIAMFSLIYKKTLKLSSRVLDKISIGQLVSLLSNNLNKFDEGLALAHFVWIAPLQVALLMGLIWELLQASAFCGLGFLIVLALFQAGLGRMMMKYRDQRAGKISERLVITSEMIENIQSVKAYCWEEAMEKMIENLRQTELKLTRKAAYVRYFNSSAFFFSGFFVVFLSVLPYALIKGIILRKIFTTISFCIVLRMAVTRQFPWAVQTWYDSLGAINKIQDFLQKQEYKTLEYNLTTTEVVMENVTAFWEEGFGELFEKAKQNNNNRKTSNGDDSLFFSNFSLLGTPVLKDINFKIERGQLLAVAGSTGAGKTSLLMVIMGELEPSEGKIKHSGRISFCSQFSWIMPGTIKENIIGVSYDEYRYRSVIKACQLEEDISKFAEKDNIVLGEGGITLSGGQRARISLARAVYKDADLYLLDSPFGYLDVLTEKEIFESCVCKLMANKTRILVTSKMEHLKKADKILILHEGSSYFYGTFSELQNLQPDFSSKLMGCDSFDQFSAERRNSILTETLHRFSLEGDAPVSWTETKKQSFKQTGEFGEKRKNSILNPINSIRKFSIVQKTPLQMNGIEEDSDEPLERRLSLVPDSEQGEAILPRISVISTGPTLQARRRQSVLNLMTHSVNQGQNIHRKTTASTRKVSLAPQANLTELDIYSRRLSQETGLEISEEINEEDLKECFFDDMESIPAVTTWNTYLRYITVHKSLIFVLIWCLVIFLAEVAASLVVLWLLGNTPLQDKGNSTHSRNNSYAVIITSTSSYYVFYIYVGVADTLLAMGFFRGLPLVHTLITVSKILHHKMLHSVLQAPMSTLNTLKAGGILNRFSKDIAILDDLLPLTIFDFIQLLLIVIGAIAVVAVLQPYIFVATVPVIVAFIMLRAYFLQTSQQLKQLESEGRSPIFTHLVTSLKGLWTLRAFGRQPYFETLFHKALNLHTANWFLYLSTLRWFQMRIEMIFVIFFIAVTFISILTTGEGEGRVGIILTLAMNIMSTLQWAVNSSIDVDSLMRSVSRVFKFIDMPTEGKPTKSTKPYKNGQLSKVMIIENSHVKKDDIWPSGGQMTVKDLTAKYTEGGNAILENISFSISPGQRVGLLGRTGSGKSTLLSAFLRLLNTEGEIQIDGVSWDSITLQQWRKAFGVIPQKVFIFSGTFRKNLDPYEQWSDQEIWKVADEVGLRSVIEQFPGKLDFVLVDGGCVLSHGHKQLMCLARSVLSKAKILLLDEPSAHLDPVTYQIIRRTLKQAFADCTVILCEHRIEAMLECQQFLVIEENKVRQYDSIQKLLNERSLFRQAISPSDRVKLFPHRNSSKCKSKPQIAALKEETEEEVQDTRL
# Summary of the method: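 Value is ratio of test-agent to DMSO AUC of equivalent transepithelial Cl− current, integrated from forskolin (10 μM) stimulation to CFTR inhibitor-172 (20 μM) block, with benzamil 10 μM present. CF-HBE (ΔF508/ΔF508) cultures had 48 h compound exposure at 10 μM, 36.5° C before recording.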
SMILES,DSLS 3D (100 μM ΔT) (NBD1),"TECC (AUC, 10 μM) (CFTR)"
"CC(Oc1cccc(C2(C)CCCC(C)(C)CS(=O)(=O)CCc3c(c(F)cc4[nH]ccc34)Oc3ccc(F)c(c3)-c3nc2nn3C)c1)C(=O)O (stereo not shown) [Compound 19B, 2-[3-[22,28-difluoro-3,6,10,10-tetramethyl-12,12-dioxo-24-oxa-12 6-thia-3,4,19,30-tetrazapentacyclo[23.3.1.12,5.015,23.016,20]triaconta-1(29),2(30),4,15,17,20,22,25,27-nonaen-6-yl]phenoxy]propanoic Acid]",A (an ΔTagg value less than or equal to 5 °C is marked “A”),A (a TECC value less than 12 is marked “A”)
"CC1(C)CCCC(c2cccc(CCC(=O)O)c2)n2ccc(n2)-c2cccc(c2)Oc2c(F)cc3[nH]ccc3c2CCS(=O)(=O)C1 (stereo not shown) [Compound 23, 3-[3-(22-Fluoro-10,10-dimethyl-12,12-dioxo-24-oxa-12lambda6-thia-5,19,30-triazapentacyclo[23.3.1.12,5.015,23.016,20]triaconta-1(29),2(30),3,15,17,20,22,25,27-nonaen-6-yl)phenyl]propanoic Acid]",C (a value greater than 10 °C and less than or equal to 25 °C is marked “C”),B (a value between 12-20 is marked “B”)
"CC(Cc1cccc(C2CCCC(C)(C)CS(=O)(=O)CCc3c(c(F)cc4[nH]ccc34)Oc3cccc(c3)-c3ccn2n3)c1)C(=O)O (stereo not shown) [Compound 25, 3-[3-(22-Fluoro-10,10-dimethyl-12,12-dioxo-24-oxa-12lambda6-thia-5,19,30-triazapentacyclo[23.3.1.12,5.015,23.016,20]triaconta-1(29),2(30),3,15,17,20,22,25,27-nonaen-6-yl)phenyl]-2-methyl-propanoic Acid]",C (a value greater than 10 °C and less than or equal to 25 °C is marked “C”),A (a TECC value less than 12 is marked “A”)
"CC1(C)CCCC(c2cccc(CC(=O)O)c2)n2ccc(n2)-c2cc(ccc2F)Oc2c(F)cc3[nH]ccc3c2CCS(=O)(=O)C1 (stereo not shown) [Compound 26, 2-[3-(22,28-Difluoro-10,10-dimethyl-12,12-dioxo-24-oxa-12lambda6-thia-5,19,30-triazapentacyclo[23.3.1.12,5.015,23.016,20]triaconta-1(29),2(30),3,15,17,20,22,25,27-nonaen-6-yl)phenyl]acetic Acid]",C (a value greater than 10 °C and less than or equal to 25 °C is marked “C”),C (a value between 20 and 80 is marked “C”)
"CC1(c2cccc(CCC(=O)O)c2)CCCCCS(=O)(=O)CCc2c(c(F)cc3[nH]ccc23)Oc2ccc(F)c(c2)-c2ncc1[nH]2 (stereo not shown) [Compound 37, 3-[3-(22,28-Difluoro-6-methyl-12,12-dioxo-24-oxa-12λ6-thia-3,19,30-triazapentacyclo[23.3.1.12,5.015,23.016,20]triaconta-1(29),2,4,15,17,20,22,25,27-nonaen-6-yl)phenyl]propanoic Acid]",C (a value greater than 10 °C and less than or equal to 25 °C is marked “C”),A (a TECC value less than 12 is marked “A”)
"O=C(O)CCc1cccc(C2CCS(=O)(=O)CCc3cn(nn3)Cc3c(c(F)cc4[nH]ccc34)Oc3ccc(F)c(c3)-c3ncc2[nH]3)c1F (stereo not shown) [Compound 40, 3-[3-(24,30-Difluoro-9,9-dioxo-26-oxa-9lambda6-thia-3,13,14,15,21,33-hexazahexacyclo[25.3.1.12,5.112,15.017,25.018,22]tritriaconta-1(31),2,4,12(32),13,17,19,22,24,27,29-undecaen-6-yl)-2-fluoro-phenyl]propanoic Acid]",C (a value greater than 10 °C and less than or equal to 25 °C is marked “C”),B (a value between 12-20 is marked “B”)
"O=S1(=O)CCc2cn(nn2)Cc2c(c(F)cc3[nH]ccc23)Oc2ccc(F)c(c2)-c2ncc([nH]2)C(c2ccccc2F)CC1 (stereo not shown) [Compound 41, 24,30-Difluoro-6-(2-fluorophenyl)-26-oxa-9λ6-thia-3,13,14,15,21,33-hexazahexacyclo[25.3.1.12,5.112,15.017,25.018,22]tritriaconta-1(31),2,4,12(32),13,17,19,22,24,27,29-undecaene 9,9-dioxide]",C (a value greater than 10 °C and less than or equal to 25 °C is marked “C”),A (a TECC value less than 12 is marked “A”)
"CC1CCC(C)(c2cccc(CCC(=O)O)c2)c2cnc([nH]2)-c2cc(ccc2F)Oc2c(F)cc3[nH]ccc3c2CCS(=O)(=O)CC1 (stereo not shown) [Compound 42, 3-[3-(22,28-Difluoro-6,9-dimethyl-12,12-dioxo-24-oxa-12lambda6-thia-3,19,30-triazapentacyclo[23.3.1.12,5.015,23.016,20]triaconta-1(29),2,4,15,17,20,22,25,27-nonaen-6-yl)phenyl]propanoic Acid]",C (a value greater than 10 °C and less than or equal to 25 °C is marked “C”),B (a value between 12-20 is marked “B”)
"CC1(C)CCCC(C)(c2cccc(CCC(=O)O)c2)c2coc(n2)-c2cc(ccc2F)Oc2c(F)cc3[nH]ccc3c2CCS(=O)(=O)C1 (stereo not shown) [Compound 44, 3-[3-(22,28-Difluoro-6,10,10-trimethyl-12,12-dioxo-3,24-dioxa-12lambda6-thia-19,30-diazapentacyclo[23.3.1.12,5.015,23.016,20]triaconta-1(29),2(30),4,15,17,20,22,25,27-nonaen-6-yl)phenyl]propanoic Acid]",C (a value greater than 10 °C and less than or equal to 25 °C is marked “C”),A (a TECC value less than 12 is marked “A”)
"CC1(C)CSCc2c(c(F)cc3[nH]ccc23)Oc2ccc(F)c(c2)-c2nc(c[nH]2)C(C)(c2cccc(CCC(=O)O)c2)CCCO1 (stereo not shown) [Compound 46, 3-[3-(22,28-difluoro-6,11,11-trimethyl-10,24-dioxa-13-thia-3,19,30-triazapentacyclo[23.3.1.12,5.015,23.016,20]triaconta-1(29),2(30),4,15,17,20,22,25,27-nonaen-6-yl)phenyl]propanoic Acid]",C (a value greater than 10 °C and less than or equal to 25 °C is marked “C”),C (a value between 20 and 80 is marked “C”)
"CC1(C)C[S+]([O-])Cc2c(c(F)cc3[nH]ccc23)Oc2ccc(F)c(c2)-c2nc(c[nH]2)C(C)(c2cccc(CCC(=O)O)c2)CCCO1 (stereo not shown) [Compound 47, 3-[3-(22,28-Difluoro-6,11,11-trimethyl-13-oxo-10,24-dioxa-13M-thia-3,19,30-triazapentacyclo[23.3.1.12,5.015,23.016,20]triaconta-1(29),2,4,15,17,20,22,25,27-nonaen-6-yl)phenyl]propanoic Acid]",C (a value greater than 10 °C and less than or equal to 25 °C is marked “C”),B (a value between 12-20 is marked “B”)
"CC1(C)CS(=O)(=O)Cc2c(c(F)cc3[nH]ccc23)Oc2ccc(F)c(c2)-c2ncc([nH]2)C(C)(c2cccc(CCC(=O)O)c2)CCCO1 (stereo not shown) [Compound 48, 3-[3-(22,28-Difluoro-6,11,11-trimethyl-13,13-dioxo-10,24-dioxa-13λ6-thia-3,19,30-triazapentacyclo[23.3.1.12,5.015,23.016,20]triaconta-1(29),2,4,15,17,20,22,25,27-nonaen-6-yl)phenyl]propanoic Acid]",C (a value greater than 10 °C and less than or equal to 25 °C is marked “C”),C (a value between 20 and 80 is marked “C”)
"CC1(C)CCCC(C)(c2cccc(CCC(=O)O)c2)c2csc(n2)-c2cccc(c2)Oc2c(F)cc3[nH]ccc3c2CCS(=O)(=O)C1 (stereo not shown) [Compound 50, 3-[3-(22-Fluoro-6,10,10-trimethyl-12,12-dioxo-24-oxa-3,12λ6-dithia-19,30-diazapentacyclo[23.3.1.12,5.015,23.016,20]triaconta-1(29),2(30),4,15,17,20,22,25,27-nonaen-6-yl)phenyl]propanoic Acid]",C (a value greater than 10 °C and less than or equal to 25 °C is marked “C”),C (a value between 20 and 80 is marked “C”)
"CC1(C)CCCC(C)(c2cccc(CCC(=O)O)c2)c2coc(n2)-c2cccc(c2)Oc2c(F)cc3[nH]ccc3c2CCS(=O)(=O)C1 (stereo not shown) [Compound 51, 3-[3-(22-Fluoro-6,10,10-trimethyl-12,12-dioxo-3,24-dioxa-12λ6-thia-19,30-diazapentacyclo[23.3.1.12,5.015,23.016,20]triaconta-1(29),2(30),4,15,17,20,22,25,27-nonaen-6-yl)phenyl]propanoic Acid]",C (a value greater than 10 °C and less than or equal to 25 °C is marked “C”),A (a TECC value less than 12 is marked “A”)
